Results published in patent US9669044B2, “Aminoglycoside and azole compositions and methods” (Utah State University, priority 2010, dated 2017).
In brackets after ≈: the same amount, converted by molar mass. Where two headings read alike, the source gives them in different places.

Legend:
Fusarium graminearum [1] = assay: microbe, parasite or virus in culture; format: cell-based; conditions: for MIC: Fusarium graminearum, read-out: MIC (growth inhibition)
Rhodotorula pilimanae [2] = assay: Disk diffusion growth inhibitory assay; format: cell-based; design: Relative Activity (zone of inhibition diameter): key: +++, considerable activity; ++, moderate activity; −−−, no activity
Rhodotorula pilimanae [3] = assay: microbe, parasite or virus in culture; format: cell-based; conditions: Rhodotorula mucilaginosa
Rhizopus stolonifer = assay: Disk diffusion growth inhibitory assay; format: cell-based; design: key: +++, considerable activity; ++, moderate activity; −−−, no activity; conditions: PDA-CA medium
Fusarium oxysporum = assay: Disk diffusion growth inhibitory assay; format: cell-based; design: key: +++, considerable activity; ++, moderate activity; −−−, no activity; conditions: PDA-CA medium
[4] = system: Saccharomyces cerevisiae W303C; format: cell-based; design: key to the marks not given beside the values; note: key: +++, considerable activity; ++, moderate activity; −−−, no activity
Fusarium culmorum = format: cell-based; design: key to the marks not given beside the values; note: key: +++, considerable activity; ++, moderate activity; −−−, no activity
[5] = system: Azole-resistant Candida albicans ATCC 10231; assay: Microdilution checkerboard assay of K20 and azoles; format: cell-based; conditions: for MIC of azole in combination with K20: combined with K20; for Effect (drug interaction class by FICI) / FICI (Fractional Inhibitory Concentration Index): the row's azole combined with K20; for MIC: Candida albicans, ATCC10231, read-out: MIC, azole alone
Mucor haemalis = assay: Disk diffusion growth inhibitory assay; format: cell-based; design: key: +++, considerable activity; ++, moderate activity; −−−, no activity; conditions: PDA-CA medium
[6] = system: Cladosporium cladosporioides; format: cell-based; design: key to the marks not given beside the values; note: key: +++, considerable activity; ++, moderate activity; −−−, no activity
Fusarium graminearum [7] = format: cell-based; conditions: disk diffusion, PDA-CA medium
Escherichia coli B = assay: Bacterial MIC test in trypticase soy broth; format: cell-based; conditions: 35° C., 12-18 hrs
Method: (§1) For purposes of the experiments discussed in this paragraph, the MIC is defined as the lowest concentration of compound needed to inhibit the growth of bacteria. A solution of a selected bacterium was inoculated into trypticase soy broth (Difco, B D, Franklin Lakes, N.J., USA), at 35° C. and incubated for 1-2 hours. […] The 96-well plate was incubated at 35° C. for 12-18 hrs. The MIC tests were repeated at least three times.

Micrococcus luteus [8] = assay: Bacterial MIC test in trypticase soy broth; format: cell-based; conditions: 35° C., 12-18 hrs
Method: as §1

Penicillium spp = format: cell-based; design: key to the marks not given beside the values; note: key: +++, considerable activity; ++, moderate activity; −−−, no activity
Microdochium nivale = format: cell-based; design: key to the marks not given beside the values; note: key: +++, considerable activity; ++, moderate activity; −−−, no activity
[9] = system: Azole-resistant Candida albicans ATCC 10231; assay: Time-kill curves of itraconazole and K20; conditions: K20 alone, 32 μg mL^−1
Method: Method: Strain Candida albicans ATCC 10231 was prepared at an inoculum size of 10^5 c.f.u. mL^−1 in PDB-CA medium. The drug concentrations used were 32 μg mL^−1 for K20 and 0.18 μg mL^−1 for itraconazole. At designated times (0, 3, 6, 9, 24 and 48 h after incubation), 100 μL aliquots were removed from each solution and serially diluted 10-fold in sterile water. One hundred μL volumes of each dilution were streaked on agar surfaces of potato dextrose agar plates to allow growth. Colony counts were determined after incubation for 48 h. The experiment was performed triplicate.

[10] = system: Candida albicans ATCC 10231; assay: Disk diffusion growth inhibitory assay; format: cell-based; design: key: +++, considerable activity; ++, moderate activity; −−−, no activity; conditions: PDA-CA medium
Ulocladium spp. = assay: Disk diffusion growth inhibitory assay; format: cell-based; design: key: +++, considerable activity; ++, moderate activity; −−−, no activity; conditions: PDA-CA medium
[11] = system: Azole-resistant Candida albicans ATCC 10231; assay: Disk diffusion test for synergistic inhibition by itraconazole and K20; format: cell-based
[12] = system: Chinese Hamster Ovary (CHO) cells (line 1-15); format: cell-based; conditions: 3.7 μg mL^−1
Method: Method: […] The cells were transferred into sterile 50 mL Falcon conical plastic tubes containing 10 mL of the medium at a cell density of 2.5×10^5 cells mL^-1. […] The suspensions were incubated with continuous agitation for 48 h at 37° C. with 5% CO2 in a humidified incubator. After 24 and 48 h, lmL portions of the cell culture suspensions (drug treated or untreated) were transferred to Beckman Coulter Vi-Cell XR cups and mixed with Trypan Blue to determine cell counts and viability in a Beckman Coulter Vi-Cell counter.

[13] = system: Staphylococcus aureus ATCC 6538; assay: Disk diffusion growth inhibitory assay; format: cell-based; design: key to the marks not given beside the values; conditions: PDA-CA medium
Micrococcus luteus [14] = assay: Disk diffusion growth inhibitory assay; format: cell-based; design: key to the marks not given beside the values; conditions: PDA-CA medium
Escherichia coli TG1 = format: cell-based; design: key to the marks not given beside the values; note: key: +++, considerable activity; ++, moderate activity; −−−, no activity

Structure (SMILES): CCCCCCCC(=O)OC[C@H]1OC(O[C@@H]2C(N)CC(N)C(O[C@H]3OC(CN)[C@@H](O)[C@H](O)C3O)[C@@H]2O)[C@H](O)[C@H](N)C1O (stereo partly drawn) [K05, 6″-O-octanoylkanamycin A]
- MIC (Fusarium graminearum [1]): > 62.5 µg/mL
- concentration giving no pigmentation (Fusarium graminearum [1]; against Fusarium graminearum): 31.25 µg/mL

Structure (SMILES): CCCCCCCCNC[C@H]1OC(O[C@@H]2C(N)CC(N)C(O[C@H]3OC(CN)[C@@H](O)[C@H](O)C3O)[C@@H]2O)[C@H](O)[C@H](N)C1O (stereo partly drawn) [K17, 6″-deoxy-6″-octylaminokanamycin A]
- activity in inhibition zone assay (Rhodotorula pilimanae [2]; against Rhodotorula pilimanae, result in words): Not determined. Only inhibition zone assay and not active against Rhodotorula pilimanae

Structure (SMILES): CCCCCCCCSC[C@H]1OC(O[C@@H]2C(N)CC(N)C(O[C@H]3OC(CN)[C@@H](O)[C@H](O)C3O)[C@@H]2O)[C@H](O)[C@H](N)C1O (stereo partly drawn) [K18, 6″-deoxy-6″octylthiokanamycin A]
- MIC (Rhodotorula pilimanae [3]): 62.5 µg/mL (≈ 102 µM)
- MIC (Fusarium graminearum [1]): 15.6 µg/mL (≈ 25.5 µM)

Structure (SMILES): Cc1ccc(S(=O)(=O)OC[C@H]2OC(O[C@@H]3C(N)CC(N)C(O[C@H]4OC(CN)[C@@H](O)[C@H](O)C4O)[C@@H]3O)[C@H](O)[C@H](N)C2O)cc1 (stereo partly drawn) [K19, 6″-O-toluenesulfonylkanamycin A]
- inhibition of Rhodotorula (Rhodotorula pilimanae [2]; result in words, assay type (MIC or disk diffusion) not stated): relatively little but nevertheless some inhibition of Rhodotorula

Structure (SMILES): CCCCCCCCS(=O)(=O)OCC1OC(OC2C(N)CC(N)C(OC3OC(CN)C(O)C(O)C3O)C2O)C(O)C(N)C1O (stereo not drawn) [K20, 6″-O-octanesulfonylkanamycin A]
- Relative Activity (zone of inhibition diameter) (Rhizopus stolonifer): +++
- Relative Activity (zone of inhibition diameter) (Fusarium oxysporum): ++
- Relative Activity (zone of inhibition diameter) [4]: ++
- Relative Activity (zone of inhibition diameter) (Fusarium culmorum): +++
- MIC, K20 alone ([5]; checkerboard, PDB-CA): 128 µg/mL
- MIC of K20 in combination ([5]; in combination with chlotrimazole): 8 µg/mL
- MIC of K20 in combination ([5]; in combination with fluconazole): 16 µg/mL
- MIC of K20 in combination ([5]; in combination with itraconazole): 32 µg/mL
- MIC of K20 in combination ([5]; in combination with ketoconazole): 32 µg/mL
- MIC of K20 in combination ([5]; in combination with metconazole): 8 µg/mL
- MIC of K20 in combination ([5]; in combination with posaconazole): 16 µg/mL
- MIC of K20 in combination ([5]; in combination with pyraclostrobin): 16 µg/mL
- MIC of K20 in combination ([5]; in combination with tioconazole): 16 µg/mL
- MIC of K20 in combination ([5]; in combination with voriconazole): 4 µg/mL
- Relative Activity (zone of inhibition diameter) (Mucor haemalis): +++
- Relative Activity (zone of inhibition diameter) [6]: ++
- Relative Activity (zone of inhibition diameter) (Fusarium graminearum [7]): ^b+++
- Relative Activity (zone of inhibition diameter) (Rhodotorula pilimanae [2]): +++
- MIC (Escherichia coli B): 250 µg/mL (≈ 378 µM)
- MIC (Micrococcus luteus [8]): 62.5 µg/mL (≈ 94.6 µM)
- Relative Activity (zone of inhibition diameter) (Penicillium spp): ++
- Relative Activity (zone of inhibition diameter) (Microdochium nivale): +++
- time-kill effect [9]: the same as the control
- Relative Activity (zone of inhibition diameter) [10]: ++
- Relative Activity (zone of inhibition diameter) (Ulocladium spp.): +++
- Zone of growth inhibition / fungicidal activity ([11]; K20 alone, 32 μg mL^−1 per disc): no fungicidal activities

Structure (SMILES): CCCCCCS(=O)(=O)OC[C@H]1OC(O[C@@H]2C(N)CC(N)C(O[C@H]3OC(CN)[C@@H](O)[C@H](O)C3O)[C@@H]2O)[C@H](O)[C@H](N)C1O (stereo partly drawn) [K22, 6″-O-hexanesulfonylkanamycin A]
- MIC (Fusarium graminearum [1]): 31.3 µg/mL (≈ 49.5 µM)

Structure (SMILES): Clc1ccccc1C(c1ccccc1)(c1ccccc1)n1ccnc1 [chlotrimazole]
- MIC, azole alone ([5]; checkerboard, PDB-CA): 1.25 µg/mL
- MIC of azole in combination with K20 ([5]; checkerboard): 0.15 µg/mL
- Effect (drug interaction class by FICI) [5]: synergy
- FICI (Fractional Inhibitory Concentration Index) [5]: 0.18

Structure (SMILES): OC(Cn1cncn1)(Cn1cncn1)c1ccc(F)cc1F [fluconazole]
- MIC ([5]; checkerboard, PDB-CA): > 24 µg/mL
- MIC of azole in combination with K20 ([5]; checkerboard): 3 µg/mL
- Effect (drug interaction class by FICI) [5]: synergy
- FICI (Fractional Inhibitory Concentration Index) [5]: 0.18

Structure (SMILES): CCC(C)n1ncn(-c2ccc(N3CCN(c4ccc(OCC5COC(Cn6cncn6)(c6ccc(Cl)cc6Cl)O5)cc4)CC3)cc2)c1=O (stereo not drawn) [itraconazole]
- MIC ([5]; checkerboard, PDB-CA): > 3 µg/mL
- MIC of azole in combination with K20 ([5]; checkerboard): 0.18 µg/mL
- Effect (drug interaction class by FICI) [5]: synergy
- FICI (Fractional Inhibitory Concentration Index) [5]: 0.31
- decrease in cell viability [12]: 63%
- Zone of growth inhibition / fungicidal activity ([11]; ITC alone, 0.5 μg mL^−1 per disc): no fungicidal activities

Structure (SMILES): NCC1O[C@H](OC2C(N)CC(N)[C@@H](OC3O[C@H](CO)C(O)[C@@H](N)[C@H]3O)[C@H]2O)C(O)[C@@H](O)[C@@H]1O (stereo partly drawn) [kanamycin A]
- Relative Activity (zone of inhibition diameter) [13]: +++
- Relative Activity (zone of inhibition diameter) (Micrococcus luteus [14]): +++
- Relative Activity (zone of inhibition diameter) (Escherichia coli TG1): +++
- MIC (Escherichia coli B; read-out: MIC): 1.95 µg/mL (≈ 4.02 µM)
- MIC (Micrococcus luteus [8]; read-out: MIC): 0.98 µg/mL (≈ 2.02 µM)

Structure (SMILES): NC[C@H]1O[C@H](O[C@H]2[C@H](O)[C@@H](O[C@H]3O[C@H](CO)[C@@H](O)[C@H](N)[C@H]3O)[C@H](N)C[C@@H]2N)[C@H](N)[C@@H](O)[C@@H]1O [kanamycin B]
- MIC (Escherichia coli B): 1.95 µg/mL (≈ 4.03 µM)
- MIC (Micrococcus luteus [8]): 0.98 µg/mL (≈ 2.03 µM)

Structure (SMILES): CC(=O)N1CCN(c2ccc(OCC3COC(Cn4ccnc4)(c4ccc(Cl)cc4Cl)O3)cc2)CC1 (stereo not drawn) [ketoconazole]
- MIC ([5]; checkerboard, PDB-CA): 24 µg/mL
- MIC of azole in combination with K20 ([5]; checkerboard): 1.5 µg/mL
- Effect (drug interaction class by FICI) [5]: synergy
- FICI (Fractional Inhibitory Concentration Index) [5]: 0.31

Structure (SMILES): CC1(C)CCC(Cc2ccc(Cl)cc2)C1(O)Cn1cncn1 (stereo not drawn) [metconazole]
- MIC ([5]; checkerboard, PDB-CA): 2.5 µg/mL
- MIC of azole in combination with K20 ([5]; checkerboard): 0.15 µg/mL
- Effect (drug interaction class by FICI) [5]: synergy
- FICI (Fractional Inhibitory Concentration Index) [5]: 0.12

Structure (SMILES): CC[C@@H]([C@H](C)O)n1ncn(-c2ccc(N3CCN(c4ccc(OC[C@@H]5CO[C@@](Cn6cncn6)(c6ccc(F)cc6F)C5)cc4)CC3)cc2)c1=O [posaconazole]
- MIC ([5]; checkerboard, PDB-CA): > 0.75 µg/mL
- MIC of azole in combination with K20 ([5]; checkerboard): 0.09 µg/mL
- Effect (drug interaction class by FICI) [5]: synergy
- FICI (Fractional Inhibitory Concentration Index) [5]: 0.24

Structure (SMILES): COC(=O)N(OC)c1ccccc1COc1ccn(-c2ccc(Cl)cc2)n1 [pyraclostrobin]
- MIC ([5]; checkerboard, PDB-CA): 6 µg/mL
- MIC of azole in combination with K20 ([5]; checkerboard): 0.75 µg/mL
- Effect (drug interaction class by FICI) [5]: synergy
- FICI (Fractional Inhibitory Concentration Index) [5]: 0.25

Structure (SMILES): Clc1ccc(C(Cn2ccnc2)OCc2ccsc2Cl)c(Cl)c1 (stereo not drawn) [tioconazole]
- MIC ([5]; checkerboard, PDB-CA): 0.25 µg/mL
- MIC of azole in combination with K20 ([5]; checkerboard): 0.03 µg/mL
- Effect (drug interaction class by FICI) [5]: synergy
- FICI (Fractional Inhibitory Concentration Index) [5]: 0.25

Structure (SMILES): C[C@@H](c1ncncc1F)[C@](O)(Cn1cncn1)c1ccc(F)cc1F [voriconazole]
- MIC ([5]; checkerboard, PDB-CA): > 1 µg/mL
- MIC of azole in combination with K20 ([5]; checkerboard): 0.125 µg/mL
- Effect (drug interaction class by FICI) [5]: synergy
- FICI (Fractional Inhibitory Concentration Index) [5]: 0.15
